Laboratory results as given in US20140296190A1, “MARKETING THE USE OF 25-HYDROXYVITAMIN D3 TO ENHANCE COGNITION” (DSM IP ASSETS B.V., priority 2013, published 2014).
Where two headings read alike, the source gives them in different places.

Key:
[1] = parameters: species or system human; conditions: in vivo
Source text: The design is a parallel group, randomized, placebo-controlled, double-blind study similar to that of Example 2, above, except that the participants are healthy adults under 65. The duration of supplementation is 6 months (180 days). Group size is chosen so that a statistically significant difference, if present, may be observed between placebo and test groups.
Participants are randomly allocated to either the 25-OH D3 group, Vitamin D3 group, (Vitamin D3+25 OH D3) group or placebo group. Double-blind randomization is carried out by means of a label code associated with a specific participant ID number, whose meaning is known only to the supplier. Participants are allocated randomly to these numbers.
For baseline (Day 0) the following tests are performed: Physical examination, vital signs (blood pressure, heart rate), demographics, clinical laboratory, FFQ, serum: 25-OH D3, 24,25(OH)2D, 1,25(OH)2D3, Vitamin D3, calcium, albumin, creatinine, fasting glucose, PTH; urine: calcium, creatinine; executive function tests (see below). Baseline evaluation is followed by the randomization of the subjects. From Day 2 on, they start to take the study compounds. […]

[2] = system: frail elderly with a low Vitamin D status; assay: Example 2 placebo-controlled trial: executive function tests in frail elderly; format: in vivo, human; conditions: 6 months, in comparison to Vitamin D3 and placebo
Source text: The design is a parallel group, randomized, placebo-controlled, double-blind study with three different application groups. Each group has an appropriate number of participants (e.g., 20 participants). Eligibility is defined as being 65 years or older and being frail or pre-frail. Frailty is defined as having unintentional weight loss, weakness, self-reported exhaustion, slow walking speed, and/or low physical activity (see Fried L P, et al. Frailty in older adults: evidence for a phenotype. J Gerontol A Biol Sci Med. Sci. March 2001; 56(3):[…]-156.) A participant is classified as pre-frail when one or two of the aforementioned criteria are met, while frail is classified when three or more criteria are present. […] The duration of supplementation is 6 months (180 days). […] Double-blind randomization is carried out by means of a label code associated with a specific participant ID number, whose meaning is known only to the supplier. Participants are allocated randomly to these numbers. For baseline (Day 0) the following tests are performed: […] […] Executive functioning test batteries include the following standard tests of executive functioning: Trail Making Tests A and B (to determine the ratio of TMT-B/TMT-A), Stroop Colour-Word Test, including determining the Stroop ratio, calculated by Stroop card 3/((Stroop card 1+Stroop card 2)/2) and animal fluency test. […]

[3] = Example 2 placebo-controlled trial: serum/plasma 25-OH D3 level in frail elderly; parameters: species or system human; conditions: in vivo
Source text: The design is a parallel group, randomized, placebo-controlled, double-blind study with three different application groups. Each group has an appropriate number of participants (e.g., 20 participants). Eligibility is defined as being 65 years or older and being frail or pre-frail. Frailty is defined as having unintentional weight loss, weakness, self-reported exhaustion, slow walking speed, and/or low physical activity (see Fried L P, et al. Frailty in older adults: evidence for a phenotype. J Gerontol A Biol Sci Med. Sci. […] A participant is classified as pre-frail when one or two of the aforementioned criteria are met, while frail is classified when three or more criteria are present. […] The duration of supplementation is 6 months (180 days). […] Double-blind randomization is carried out by means of a label code associated with a specific participant ID number, whose meaning is known only to the supplier. Participants are allocated randomly to these numbers. For baseline (Day 0) the following tests are performed: […] Baseline evaluation is followed by the randomization of the subjects. From Day 2 on, they start to take the study compounds. […] For the combination administration, the same ranges of both actives are administered. At visits on Day 90 and Day 180 the following tests are performed: […]

healthy adults under 65 = assay: Example 3 placebo-controlled trial: executive function tests in the general adult population; format: in vivo, human; conditions: healthy adults under 65, 6 months
Description: The design is a parallel group, randomized, placebo-controlled, double-blind study similar to that of Example 2, above, except that the participants are healthy adults under 65. The duration of supplementation is 6 months (180 days). Group size is chosen so that a statistically significant difference, if present, may be observed between placebo and test groups. […] Double-blind randomization is carried out by means of a label code associated with a specific participant ID number, whose meaning is known only to the supplier. Participants are allocated randomly to these numbers. For baseline (Day 0) the following tests are performed: […] Baseline evaluation is followed by the randomization of the subjects. From Day 2 on, they start to take the study compounds. At visits on Day 90 and Day 180 the following tests are performed: […] Executive functioning test batteries include the following standard tests of executive functioning: Trail Making Tests A and B (to determine the ratio of TMT-B/TMT-A), Stroop Colour-Word Test, including determining the Stroop ratio, calculated by Stroop card 3/((Stroop card 1+Stroop card 2)/2) and animal fluency test. These tests are always performed at the same time of the day.

25-OH D serum level [1]: significantly increases
25-OH D serum level [3]: significantly increases
Structure (SMILES): C=C1CC[C@H](O)C/C1=C/C=C1\CCC[C@]2(C)[C@@H]([C@H](C)CCCC(C)(C)O)CC[C@@H]12 [25(OH)D, 25-hydroxyvitamin D3]
Improvement of executive functioning [2]: significantly higher effect
Executive function in comparison to placebo (healthy adults under 65): Positive results
